In patent US11447465B2, “Pharmaceutical compounds for treatment of medical disorders” (Achillion Pharmaceuticals, Inc., priority 2017, dated 2022):

biological target: Human Factor D (Homo sapiens (Human), UniProt P00746); experiment: Human Factor D Assay; assay type: biochemical; conditions: Table 7; read-out: IC5 (Stars)
How it was run: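 Serum-purified human factor D (80 nM final) preincubated with compound 5 min at room temperature in 50 mM Tris, 1 M NaCl, pH 7.5. Z-L-Lys-SBzl and DTNB added at 100 μM each; A405 followed every 30 s for 30 min. IC50 by nonlinear regression of rates.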

Chain of Human Factor D (P00746 26-253): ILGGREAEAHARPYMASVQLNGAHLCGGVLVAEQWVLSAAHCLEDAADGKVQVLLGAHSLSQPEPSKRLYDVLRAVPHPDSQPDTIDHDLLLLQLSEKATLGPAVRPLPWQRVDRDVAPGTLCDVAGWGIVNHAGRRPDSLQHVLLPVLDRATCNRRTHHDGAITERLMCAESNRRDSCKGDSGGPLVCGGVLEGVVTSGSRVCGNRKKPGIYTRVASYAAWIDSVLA

| Compound | IC50 [µM] |
| --- | --- |
| COc1cc(CC(=O)N2[C@H](C(=O)Nc3nc(Br)ccc3C)C[C@@]3(C)C[C@@H]23)cc(-c2cnc(OC)nc2)c1 [Compound T-153, (1R,3S,5R)-N-(6-bromo-3-methylpyridin-2-yl)-2-(2-(3-methoxy-5-(2-methoxypyrimidin-5-yl)phenyl)acetyl)-5-methyl-2-azabicyclo[3.1.0]hexane-3-carboxamide] | 1 to 10 |
| Cc1ccc(Br)nc1NC(=O)[C@@H]1C[C@@]2(C)C[C@H]2N1C(=O)Cc1ccc2[nH]nc(Cl)c2c1 [Compound T-155, (1R,3S,5R)-N-(6-bromo-3-methylpyridin-2-yl)-2-(2-(3-chloro-1H-indazol-5-yl)acetyl)-5-methyl-2-azabicyclo[3.1.0]hexane-3-carboxamide] | 1 to 10 |
| Cc1ccc(Br)nc1NC(=O)[C@@H]1C[C@@]2(C)C[C@H]2N1C(=O)Cc1ccc2[nH]nc(C(=O)O)c2c1 [Compound T-158, 5-(2-((1R,3S,5R)-3-((6-bromo-3-methylpyridin-2-yl)carbamoyl)-5-methyl-2-azabicyclo[3.1.0]hexan-2-yl)-2-oxoethyl)-1H-indazole-3-carboxylic acid] | 1 to 10 |
| Cc1ncc(-c2cc(CC(=O)N3C[C@H](F)C[C@H]3C(=O)Nc3cccc(Br)n3)cc(C(N)=O)c2)cn1 [Compound T-167, (2S,4R)-N-(6-bromopyridin-2-yl)-1-(2-(3-carbamoyl-5-(2-methylpyrimidin-5-yl)phenyl)acetyl)-4-fluoropyrrolidine-2-carboxamide] | 1 to 10 |
| Cc1ncc(-c2cc(CC(=O)N3[C@H](C(=O)Nc4nc(Br)ccc4C)C[C@@]4(C)C[C@@H]34)cc(C(N)=O)c2)cn1 [Compound T-169, (1R,3S,5R)-N-(6-bromo-3-methylpyridin-2-yl)-2-(2-(3-carbamoyl-5-(2-methylpyrimidin-5-yl)phenyl)acetyl)-5-methyl-2-azabicyclo[3.1.0]hexane-3-carboxamide] | 1 to 10 |
| Cc1ncc(-c2cc(C#N)cc(CC(=O)N3C[C@H](F)C[C@H]3C(=O)Nc3cccc(Br)n3)c2)cn1 [Compound T-170, (2S,4R)-N-(6-bromopyridin-2-yl)-1-(2-(3-cyano-5-(2-methylpyrimidin-5-yl)phenyl)acetyl)-4-fluoropyrrolidine-2-carboxamide] | 1 to 10 |
| Cc1ncc(-c2cc(C#N)cc(CC(=O)N3[C@H](C(=O)Nc4nc(Br)ccc4C)C[C@@]4(C)C[C@@H]34)c2)cn1 [Compound T-171, (1R,3S,5R)-N-(6-bromo-3-methylpyridin-2-yl)-2-(2-(3-cyano-5-(2-methylpyrimidin-5-yl)phenyl)acetyl)-5-methyl-2-azabicyclo[3.1.0]hexane-3-carboxamide] | 1 to 10 |
| Cc1ncc(-c2cc(CC(=O)N3C[C@H](F)C[C@H]3C(=O)Nc3cccc(-c4ccccc4Cl)c3F)cc(OCC(=O)O)c2)cn1 [Compound T-176, 2-(3-(2-((2S,4R)-2-((2′-chloro-2-fluoro-[1,1′-biphenyl]-3-yl)carbamoyl)-4-fluoropyrrolidin-1-yl)-2-oxoethyl)-5-(2-methylpyrimidin-5-yl)phenoxy)acetic acid] | 1 to 10 |
| Cc1ccc(Br)nc1NC(=O)[C@@H]1C[C@@]2(CNC(=O)COCCOCCNC(=O)COCCOCCNC(=O)CC[C@H](NC(=O)CCCCCCCCCCCCCCCCC(=O)O)C(=O)O)C[C@H]2N1C(=O)Cn1nc(C(N)=O)c2cc(C#Cc3ncc(F)cn3)ccc21 [Compound T-177, (S)-1-((1R,3S,5R)-3-((6-bromo-3-methylpyridin-2-yl)carbamoyl)-2-(2-(3-carbamoyl-5-((5-fluoropyrimidin-2-yl)ethynyl)-1H-indazol-1-yl)acetyl)-2-azabicyclo[3.1.0]hexan-5-yl)-24-carboxy-3,12,21,26-tetraoxo-5,8,14,17-tetraoxa-2,11,20,25-tetraazatritetracontan-43-oic acid] | < 1 |
